In patent publication US7351861B2 (priority 2002, dated 2008):
pIC50: −log10 of the molar value.

Test system: luciferase light signal from pIB29EL (yopE-luxAB)
Assay: microbe, parasite or virus in culture
Format: cell-based, Yersinia pseudotuberculosis
Settings: for inhibition at 10 µM: read-out: Inhibition (%) of the luciferase light signal, 10 μM; for inhibition at 20 µM: read-out: Inhibition (%) of the luciferase light signal, 20 μM; for inhibition at 50 µM: read-out: Inhibition (%) of the luciferase light signal, 50 μM; for inhibition at 100 µM: read-out: Inhibition (%) of the luciferase light signal, 100 μM; for inhibition at 5 µM: read-out: Inhibition (%) of the luciferase light signal, 5 μM
[1] = Yersinia pseudotuberculosis, strain pIB29EL, Table 2C
[2] = 10 μM, strain pIB29EL, Table 2C
[3] = 20 μM, strain pIB29EL, Table 2C
[4] = 50 μM, strain pIB29EL, Table 2C
[5] = 100 μM, strain pIB29EL, Table 2C

Row | Structure (SMILES) | Inhibition (%) of the luciferase light signal (10 μM, pIB29EL, Table 2A) [%] | Inhibition (%) of the luciferase light signal (20 μM, pIB29EL, Table 2A) [%] | Inhibition (%) of the luciferase light signal (50 μM, pIB29EL, Table 2A) [%] | Inhibition (%) of the luciferase light signal (100 μM, pIB29EL, Table 2A) [%] | inhibition at 10 µM [1] [%] | inhibition at 20 µM [1] [%] | inhibition at 50 µM [1] [%] | inhibition at 100 µM [1] [%] | inhibition at 5 µM [1] [%] | other results
1 | CC1(C)S[C@@H]2[C@H](NC(=O)C(C(=O)O)c3ccccc3)C(=O)N2[C@H]1C(=O)O (stereo partly shown) [Carbenicillin, reference compound] |  |  |  |  |  |  |  |  |  | pIC50 (Yersinia pseudotuberculosis, read-out: IC50 (concentration resulting in 50% reduction of luciferase light emission)): 4.82; Inhibition of light-emission (in words) (known antibiotics, pIB29EL): dose-dependent inhibition of light-emission
2 | O=C(N/N=C/c1cc(Br)cc(Br)c1O)c1cccnc1 [Compound 7] | 25 | 20 | 68 | 93 |  |  |  |  |  | 
3 | O=C(N/N=C/c1c(O)ccc2ccccc12)c1ccccc1 [Compound 9] | 9 | 21 | 41 | 49 |  |  |  |  |  | 
4 | C=CCc1cccc(/C=N/NC(=O)c2ccc([N+](=O)[O-])cc2)c1O [Compound 10] | 30 | 49 | 56 | 57 |  |  |  |  |  | 
5 | CCCCCCc1cc(/C=N/NC(=O)c2ccc([N+](=O)[O-])cc2)c(O)cc1O [Compound 11] | 30 | 42 | 69 | 80 |  |  |  |  |  | 
6 | O=C(N/N=C/c1cc(O)ccc1O)c1ccco1 [Compound 12] | 12 | 16 | 41 | 65 |  |  |  |  |  | 
7 | O=C(N/N=C/c1ccc(O)cc1O)c1cc2ccccc2cc1O [Compound 13] | 26 | 47 | 69 | 73 |  |  |  |  |  | 
8 | CC(=O)Oc1ccc(I)cc1C(=O)Nc1ccc(Cl)cc1 [Compound 16] |  |  |  |  |  |  |  |  |  | Inhibition (%) of the luciferase light signal (5 μM (first of two columns headed 5), pIB29EL, Table 2B): 65%; Inhibition (%) of the luciferase light signal (5 μM (second of two columns headed 5), pIB29EL, Table 2B): 97%; Inhibition (%) of the luciferase light signal (10 μM, pIB29EL, Table 2B): 98%; Inhibition (%) of the luciferase light signal (20 μM, pIB29EL, Table 2B): 97%
9 | CC(=O)Oc1c(I)cc(I)cc1C(=O)Nc1ccc(F)cc1 [Compound 17] | 36 | 42 | 89 | 90 |  |  |  |  |  | 
10 | CC(=O)Oc1c(I)cc(I)cc1C(=O)Nc1ccccc1 [Compound 18] | 11 | 51 | 70 | 62 |  |  |  |  |  | 
11 | CC(=O)Oc1c(Br)cc(Br)cc1C(=O)Nc1ccccc1F [Compound 19] | 0 | 0 | 45 | 70 |  |  |  |  |  | 
12 | O=C(COc1ccccc1)N/N=C/c1c(O)ccc2ccccc12 [Compound 20] |  |  |  |  | 2 | 5 | 19 | 48 |  | 
13 | C/C(=N\NC(=O)c1ccc([N+](=O)[O-])cc1)c1cc(Br)cc(Br)c1O [Compound 21] |  |  |  |  | 21 | 18 | 44 | 57 |  | 
14 | O=C(Nc1ccc(Cl)cc1)c1cc(I)ccc1O [Compound 23] |  |  |  |  |  |  |  |  |  | Inhibition (%) of the luciferase light signal (5 μM, strain pIB29EL, Table 2C): 70%; Inhibition (%) of the luciferase light signal [2]: 75%; Inhibition (%) of the luciferase light signal [3]: 83%; Inhibition (%) of the luciferase light signal [4]: 80%; Inhibition (%) of the luciferase light signal [5]: 78%
15 | O=C(Nc1ccc(Cl)cc1)c1ccccc1O [Compound 24] |  |  |  |  | 30 | 73 | 90 | 88 | 7 | 
16 | O=C(Nc1ccc(Cl)cc1)c1cc(I)cc(I)c1O [Compound 25] |  |  |  |  | 92 | 93 | 100 | 98 | 80 | 
17 | O=C(Nc1ccc(SC(F)(F)F)cc1)c1cc(I)cc(I)c1O [Compound 26] |  |  |  |  | 15 | 41 | 84 | 93 | 15 | 
18 | O=C(Nc1ccccc1F)c1cc(Br)cc(Br)c1O [Compound 27] |  |  |  |  | 3 | 1 | 13 | 20 | 9 | 
19 | CCCCCCCc1ccc(NC(=O)c2cc(I)cc(I)c2O)cc1 [Compound 28] |  |  |  |  | 90 | 99 | 99 | 99 | 67 | 
20 | CC(C)(C)c1ccc(NC(=O)c2cc(I)cc(I)c2O)cc1 [Compound 29] |  |  |  |  | 18 | 21 | 30 | 28 | 19 | 
21 | CC(=O)Oc1cc(C)ccc1C(=O)Nc1ccccc1F [Compound 30] |  |  |  |  | 15 | 35 | 63 | 83 | 14 | 
22 | O=C(Nc1ccccc1)c1cc(I)cc(I)c1O [Compound 31] |  |  |  |  |  |  |  |  |  | Inhibition (%) of the luciferase light signal (5 μM, strain pIB29EL, Table 2C): 10%; Inhibition (%) of the luciferase light signal [2]: 30%; Inhibition (%) of the luciferase light signal [3]: 60%; Inhibition (%) of the luciferase light signal [4]: 77%; Inhibition (%) of the luciferase light signal [5]: 98%
23 | CC(C)(C)c1ccc(NC(=O)c2c(O)c(Cl)cc(Cl)c2Cl)cc1 [Compound 32] |  |  |  |  | 23 | 37 | 42 | 46 | 14 | 
24 | CC(=O)Oc1c(I)cc(I)cc1C(=O)Nc1ccc(SC(F)(F)F)cc1 [Compound 33] |  |  |  |  | 70 | 68 | 69 | 71 | 71 | 
25 | CC(=O)Oc1c(Cl)cc(Cl)c(Cl)c1C(=O)Nc1ccc(SC(F)(F)F)cc1 [Compound 47] |  |  |  |  |  |  |  |  |  | Inhibition (%) of the luciferase light signal (5 μM, strain pIB29EL, Table 2C): 55%; Inhibition (%) of the luciferase light signal [2]: 61%; Inhibition (%) of the luciferase light signal [3]: 73%; Inhibition (%) of the luciferase light signal [4]: 90%; Inhibition (%) of the luciferase light signal [5]: 90%
26 | O=C(Nc1cc(Cl)ccc1F)c1cc(I)cc(I)c1O [Compound 48] |  |  |  |  |  |  |  |  |  | Inhibition (%) of the luciferase light signal (5 μM, strain pIB29EL, Table 2C): 36%; Inhibition (%) of the luciferase light signal [2]: 75%; Inhibition (%) of the luciferase light signal [3]: 88%; Inhibition (%) of the luciferase light signal [4]: 89%; Inhibition (%) of the luciferase light signal [5]: 88%
27 | CC(=O)Oc1c(I)cc(I)cc1C(=O)Nc1cc(Cl)ccc1F [Compound 49] |  |  |  |  |  |  |  |  |  | Inhibition (%) of the luciferase light signal (5 μM, strain pIB29EL, Table 2C): 24%; Inhibition (%) of the luciferase light signal [2]: 34%; Inhibition (%) of the luciferase light signal [3]: 63%; Inhibition (%) of the luciferase light signal [4]: 89%; Inhibition (%) of the luciferase light signal [5]: 88%
28 | O=C(Nc1ccc(Br)cc1)c1cc(I)ccc1O [Compound 50] |  |  |  |  |  |  |  |  |  | Inhibition (%) of the luciferase light signal (5 μM, strain pIB29EL, Table 2C): 57%; Inhibition (%) of the luciferase light signal [2]: 69%; Inhibition (%) of the luciferase light signal [3]: 62%; Inhibition (%) of the luciferase light signal [4]: 72%; Inhibition (%) of the luciferase light signal [5]: 70%
29 | CC(=O)Oc1ccc(I)cc1C(=O)Nc1ccc(Br)cc1 [Compound 51] |  |  |  |  |  |  |  |  |  | Inhibition (%) of the luciferase light signal (5 μM, strain pIB29EL, Table 2C): 91%; Inhibition (%) of the luciferase light signal [2]: 87%; Inhibition (%) of the luciferase light signal [3]: 89%; Inhibition (%) of the luciferase light signal [4]: 87%; Inhibition (%) of the luciferase light signal [5]: 85%
